The text below walks through data of publication doi:10.1101/2021.09.28.462164v1 (biorxiv, 2021).

Type in all cases: cell-based
Common to all, as to details: 30 C; extract in 50 mM Tris-HCl pH 7.5; described as competitive inhibitor

Test [1] has as its target T1, HsHK2 (Homo sapiens, UniProt P52789).
T1 sequence (P52789 1-917): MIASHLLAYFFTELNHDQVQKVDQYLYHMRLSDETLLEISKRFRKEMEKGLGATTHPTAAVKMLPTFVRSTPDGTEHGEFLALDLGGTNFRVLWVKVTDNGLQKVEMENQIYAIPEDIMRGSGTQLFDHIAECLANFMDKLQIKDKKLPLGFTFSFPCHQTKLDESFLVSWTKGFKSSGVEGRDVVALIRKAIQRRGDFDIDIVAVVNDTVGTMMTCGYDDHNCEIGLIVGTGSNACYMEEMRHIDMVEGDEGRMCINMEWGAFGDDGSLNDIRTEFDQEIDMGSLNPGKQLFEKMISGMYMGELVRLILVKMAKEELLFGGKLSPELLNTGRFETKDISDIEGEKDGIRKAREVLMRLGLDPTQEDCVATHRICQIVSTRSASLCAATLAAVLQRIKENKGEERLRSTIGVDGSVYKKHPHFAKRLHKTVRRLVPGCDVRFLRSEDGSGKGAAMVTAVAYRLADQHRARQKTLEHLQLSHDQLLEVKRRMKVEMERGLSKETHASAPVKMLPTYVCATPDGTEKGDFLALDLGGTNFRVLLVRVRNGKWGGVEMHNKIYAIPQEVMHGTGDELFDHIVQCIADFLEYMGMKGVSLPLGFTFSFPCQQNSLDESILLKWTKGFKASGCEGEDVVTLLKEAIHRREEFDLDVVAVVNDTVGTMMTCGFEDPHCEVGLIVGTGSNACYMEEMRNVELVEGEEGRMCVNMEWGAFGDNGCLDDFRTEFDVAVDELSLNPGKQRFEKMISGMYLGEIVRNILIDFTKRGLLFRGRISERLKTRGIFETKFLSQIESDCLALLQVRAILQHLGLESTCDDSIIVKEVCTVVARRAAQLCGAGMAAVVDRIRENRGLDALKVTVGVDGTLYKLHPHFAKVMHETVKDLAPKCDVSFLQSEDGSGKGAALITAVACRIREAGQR

The target of test [2] is T2, HsHK1 (Homo sapiens, UniProt P19367).
T2 sequence (P19367 1-917): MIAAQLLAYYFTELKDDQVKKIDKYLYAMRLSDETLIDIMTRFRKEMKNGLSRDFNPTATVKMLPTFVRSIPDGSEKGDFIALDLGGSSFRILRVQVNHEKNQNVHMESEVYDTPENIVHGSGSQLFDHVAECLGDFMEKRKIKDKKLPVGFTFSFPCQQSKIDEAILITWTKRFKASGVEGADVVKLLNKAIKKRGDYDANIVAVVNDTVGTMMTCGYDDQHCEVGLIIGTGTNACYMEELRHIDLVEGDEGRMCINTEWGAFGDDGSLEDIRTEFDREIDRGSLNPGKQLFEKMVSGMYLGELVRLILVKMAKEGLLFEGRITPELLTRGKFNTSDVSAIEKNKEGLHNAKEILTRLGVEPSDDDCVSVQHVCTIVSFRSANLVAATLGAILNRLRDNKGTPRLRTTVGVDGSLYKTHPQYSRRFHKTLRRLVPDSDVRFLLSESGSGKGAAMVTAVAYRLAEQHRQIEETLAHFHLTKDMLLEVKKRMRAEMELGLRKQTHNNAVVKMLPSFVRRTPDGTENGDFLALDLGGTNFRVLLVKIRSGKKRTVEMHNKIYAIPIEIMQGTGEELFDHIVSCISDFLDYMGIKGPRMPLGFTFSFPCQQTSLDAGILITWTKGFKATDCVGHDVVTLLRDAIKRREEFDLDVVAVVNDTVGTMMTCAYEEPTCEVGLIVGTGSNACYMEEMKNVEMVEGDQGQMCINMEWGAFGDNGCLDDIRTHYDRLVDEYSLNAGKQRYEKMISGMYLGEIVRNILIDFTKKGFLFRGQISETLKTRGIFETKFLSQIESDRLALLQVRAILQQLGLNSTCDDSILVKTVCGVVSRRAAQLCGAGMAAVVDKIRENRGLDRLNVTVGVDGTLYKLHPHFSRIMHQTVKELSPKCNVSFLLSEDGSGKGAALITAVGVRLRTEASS

For test [3], the target named is T3, HsHK1 (Homo sapiens, UniProt P19367, G679A).
T3 sequence (P19367 1-917 G679A): T2 sequence (P19367 1-917) with G679A

Test [4] has as its target T4, HsHK2 (Homo sapiens, UniProt P52789, L776F).
T4 sequence (P52789 1-917 L776F): T1 sequence (P52789 1-917) with L776F

Substitutions are numbered along the chain they refer to.

As usually defined, the IC50 is the midpoint of a concentration-inhibition curve. A high value points to weaker potency. As for `O=P(O)(O)OC[C@H]1OC(O)[C@H](O)[C@@H](O)[C@@H]1O` (stereo partly shown) [glucose-6-phosphate], the IC50 at HsHK2 [1] is 87 ± 21 µM; at HsHK1 [2] it was 38 ± 15 µM; on HsHK1 [3], 320 ± 100 µM; at HsHK2 [4] it was 260 ± 200 µM.
